Reference: ChEMBL document CHEMBL1123687, “A new thienylpyrazoloquinoline: a potent and orally active inverse agonist to benzodiazepine receptors” (J Med Chem, 1987)

Legend:
Mus musculus [1] = assay: Ability to inhibit pentylenetetrazole (PTZ) induced convulsions n mice after peroral administration at 125 mg/Kg; Range is between (2.70-7.09); assay type: functional; details: po
[2] = target: GABA-A receptor; anion channel; assay: Displacement of [3H]-diazepam from GABA-A benzodiazepine receptor of rat cerebral cortex; assay type: tissue-based
Mus musculus [3] = assay: Ability to inhibit pentylenetetrazole (PTZ) induced convulsions in mice after peroral administration at 75 mg/Kg; […]; assay type: functional; details: po
Mus musculus [4] = assay: Ability to inhibit pentylenetetrazole (PTZ) induced convulsions in mice after peroral administration at 90 mg/Kg; assay type: functional; details: po
Mus musculus [5] = assay: Ability to facilitate pentylenetetrazole (PTZ) induced convulsions in mice after peroral administration at 50 mg/Kg; assay type: functional; details: po
Mus musculus [6] = assay: Ability to facilitate pentylenetetrazole (PTZ) induced convulsions in mice after intravenously administration at 90 mg/Kg; Range is between (0.27-0.71); assay type: functional; details: iv
Mus musculus [7] = assay: Ability to inhibit pentylenetetrazole (PTZ) induced convulsions in mice after intravenously administration at 75 mg/Kg; Range is between (0.62-1.62); assay type: functional; details: iv
Mus musculus [8] = assay: Ability to inhibit pentylenetetrazole (PTZ) induced convulsions in mice after intravenous administration at 75 mg/Kg; Range is between (0.34-0.73); assay type: functional
Mus musculus [9] = assay: Ability to facilitate pentylenetetrazole (PTZ) induced convulsions in mice after intravenously administration at 90 mg/Kg; Range is between (0.24-0.40); assay type: functional; details: iv
Mus musculus [10] = assay: Ability to facilitate pentylenetetrazole (PTZ) induced convulsions n mice after intravenous administration at 90 mg/Kg; Range is between (0.09-0.50); assay type: functional
Mus musculus [11] = assay: Ability to facilitate pentylenetetrazole (PTZ) induced convulsions n mice after peroral administration at 90 mg/Kg; Range is between (5.43-33.74); assay type: functional; details: po
Mus musculus [12] = species on record: Mus musculus; assay: animal or person; details: po

## Cc1ccc(-n2[nH]c3c(cnc4ccccc43)c2=O)s1
Mus musculus [1]
  ED50: 4.59 mg/kg
[2]
  Ki: 320 pM

## Cc1cc(-n2[nH]c3c(cnc4ccccc43)c2=O)cs1
Mus musculus [3]
  ED50: 1.67 mg/kg
Mus musculus [4]
  ED50: 0.92 mg/kg
[2]
  Ki: 316 pM

## CCOC(=O)c1cc2c(cn1)[nH]c1ccccc12
Mus musculus [5]
  ED50: 37.5 mg/kg
Mus musculus [6]
  ED50: 0.46 mg/kg
Mus musculus [7]
  ED50: 1 mg/kg

## COC(=O)c1cc2c(cn1)[nH]c1ccccc12 [BETA-CCM]
Mus musculus [8]
  ED50: 0.49 mg/kg
Mus musculus [9]
  ED50: 0.29 mg/kg
[2]
  Ki: 1470 pM

## O=C1C2C=Nc3ccccc3C2=NN1c1ccccc1 (centres undefined) [CGS-8216]
Mus musculus [10]
  ED50: 0.2 mg/kg
Mus musculus [11]
  ED50: 12.8 mg/kg

## CN1C(=O)CN=C(c2ccccc2)c2cc(Cl)ccc21 [DIAZEPAM]
Mus musculus [12]
  ED50: 0.67 mg/kg
